The record followed here is ChEMBL document CHEMBL1201862, “PubChem BioAssay data set” (2004).

Some test systems named below: EKVX; HCT-15; HOP-92; HT-29; IGROV-1; K562; Malme-3M; NCI-H226; NCI-H460; NCI/ADR-RES; OVCAR-4; RPMI-8226; SF-295; SF-539; SK-MEL-5; SK-OV-3; SNB-19; U-251; UACC-257; SK-MEL-2.
Holding throughout (experiment): growth of human tumour cells (NCI), 48 h

Structures are written as SMILES.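 How tested: cells in 96-well plates exposed to compound for 48 hours at five concentrations. At the GI50, growth is halved.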 Calls of active or inactive are those of the source. Cut-off read from the data, not from the text of the source: active = GI50 up to about 1.1 µM and inactive = higher.

As for `CC1(C)N=c2c(ncn2CCCO)=C(C(N)=O)N1`, the GI50 with EKVX was > 100 µM (inactive); with HCT-15 it was over 100 µM; with HOP-92, > 100 µM (inactive); with HT-29, > 100 µM (inactive); in the experiment on IGROV-1, > 100 µM (inactive); in the experiment with K562 it was > 100 µM (inactive). Also, the GI50 with Malme-3M, in the experiment with NCI-H226, in the experiment on NCI-H460, with NCI/ADR-RES, in the experiment with OVCAR-4 and in the experiment on RPMI-8226 was > 100 µM (inactive) in each case. Besides, the GI50 with SF-295, with SF-539, in the experiment on SK-MEL-5, in the experiment on SK-OV-3, in the experiment with SNB-19 and with U-251 was > 100 µM (inactive) each time. For the same compound, the GI50 in the experiment with UACC-257 was > 100 µM (inactive).

For the compound `CN(C)CCCc1cccc2[nH]c3c(c12)CN(C)CC3`, the GI50 with EKVX is > 100 µM (inactive); in the experiment with HCT-15 it was 80 µM; in the experiment on HOP-92, > 100 µM (inactive); in the experiment with HT-29, 40.1 µM (inactive); in the experiment with IGROV-1, 73.1 µM (inactive); with K562 it was 76.7 µM (inactive). In addition, the GI50 was 95.9 µM (inactive) with Malme-3M; > 100 µM (inactive) in the experiment with NCI-H226; > 100 µM (inactive) with NCI-H460; > 100 µM (inactive) in the experiment with NCI/ADR-RES; > 100 µM (inactive) with OVCAR-4; > 100 µM (inactive) with RPMI-8226. Besides, the GI50 in the experiment with SF-295 is > 100 µM (inactive); with SF-539, 28.8 µM (inactive); with SK-MEL-2 it was > 100 µM (inactive); in the experiment on SK-MEL-5 it was > 100 µM (inactive); in the experiment on SK-OV-3, > 100 µM (inactive); with SNB-19 it was > 100 µM (inactive). The GI50 in the experiment on U-251 is > 100 µM (inactive); in the experiment on UACC-257, 80 µM (inactive).

As to `COc1cc(/C=C2/SC(c3ccccc3)N(c3ccccc3Cl)C2=O)cc(OC)c1OC` (configuration not stated), the GI50 in the experiment with EKVX is 44.1 µM (inactive); with HCT-15, 31.6 µM; with HOP-92, 26.1 µM (inactive); with K562, 31.2 µM (inactive); in the experiment on Malme-3M, 23.4 µM (inactive); in the experiment on NCI-H226, 30.1 µM (inactive). In addition, the GI50 in the experiment with NCI-H460 was 43.7 µM (inactive); in the experiment with NCI/ADR-RES it was 25.9 µM (inactive); in the experiment with OVCAR-4, 41.6 µM (inactive); with RPMI-8226, 21.7 µM (inactive); in the experiment with SF-295 it was 32.1 µM (inactive); in the experiment with SF-539, 19.7 µM (inactive). In addition, the GI50 is 33.9 µM (inactive) in the experiment with SK-MEL-2; 15.4 µM (inactive) in the experiment on SK-MEL-5; 19.8 µM (inactive) with SK-OV-3; 28.2 µM (inactive) in the experiment with SNB-19; 23.1 µM (inactive) in the experiment with U-251; 42.2 µM (inactive) in the experiment on UACC-257.

With `S=C1NCCN1C(=S)NC1CCCCC1`, the GI50 with EKVX was 29.1 µM (inactive); in the experiment with HCT-15, 29 µM; with HOP-92, 24.8 µM (inactive); in the experiment on HT-29 it was 21.8 µM (inactive); in the experiment with IGROV-1, 68.1 µM (inactive); with K562, 36.8 µM (inactive). The GI50 in the experiment on Malme-3M was 20.8 µM (inactive); with NCI-H226 it was 22.2 µM (inactive); in the experiment on NCI-H460, 20.3 µM (inactive); with NCI/ADR-RES, 29.2 µM (inactive); in the experiment on OVCAR-4, 19.3 µM (inactive); in the experiment on RPMI-8226, 30 µM (inactive). For the same compound, the GI50 is 37.2 µM (inactive) with SF-295; 21 µM (inactive) with SF-539; 34.8 µM (inactive) with SK-MEL-2; 22.2 µM (inactive) in the experiment with SK-MEL-5; 39.4 µM (inactive) in the experiment with SK-OV-3; 37 µM (inactive) in the experiment with U-251. In addition, the GI50 in the experiment with UACC-257 was 26.2 µM (inactive).

In the case of `Cc1nc2c(o1)C(=O)c1ccccc1/C2=N/C1CCCCC1N` (configuration not stated), the GI50 was 1.11 µM (active) with EKVX; 0.547 µM in the experiment on HCT-15; 0.483 µM (active) with HOP-92; 2.28 µM (inactive) with HT-29; 1.26 µM (inactive) in the experiment on IGROV-1; 0.235 µM (active) in the experiment on K562. Further, the GI50 was 0.133 µM (active) in the experiment on Malme-3M; 1.97 µM (inactive) in the experiment with NCI-H226; 1.61 µM (inactive) in the experiment on NCI-H460; 0.288 µM (active) in the experiment with NCI/ADR-RES; 0.308 µM (active) with OVCAR-4; 0.565 µM (active) in the experiment with RPMI-8226. Besides, the GI50 in the experiment on SF-539 was 0.32 µM (active); with SK-MEL-2 it was 0.867 µM (active); with SK-MEL-5, 0.11 µM (active); in the experiment on SNB-19, 0.787 µM (active); in the experiment on U-251, 0.312 µM (active); in the experiment with UACC-257, 0.144 µM (active).

Take `CN1N(c2ccccc2)C(=O)C2=NC=C(C#N)C(=N)C21C` (configuration not stated): the GI50 in the experiment with EKVX was > 100 µM (inactive); with HCT-15, over 100 µM; with HOP-92, > 100 µM (inactive); in the experiment with IGROV-1 it was > 100 µM (inactive); in the experiment on K562 it was > 100 µM (inactive); in the experiment on Malme-3M, > 100 µM (inactive). The GI50 in the experiment with NCI-H226, in the experiment on NCI-H460, in the experiment with NCI/ADR-RES, in the experiment on OVCAR-4, in the experiment with RPMI-8226 and with SF-295 was > 100 µM (inactive) in each case. Also, the GI50 in the experiment on SF-539, in the experiment with SK-MEL-2, with SK-MEL-5, in the experiment on SK-OV-3, in the experiment on SNB-19 and with U-251 was > 100 µM (inactive) throughout. The GI50 with UACC-257 is > 100 µM (inactive).

In the case of `CC(C)=CCC[C@@H](C)c1c2nc3ccccc3[nH]c-2c(C)c(=O)c1O`, the GI50 in the experiment with EKVX is 2.7 µM (inactive); in the experiment with HCT-15, 0.236 µM; in the experiment on HOP-92, 1.41 µM (inactive); with HT-29, 5.32 µM (inactive); in the experiment with IGROV-1, 2.07 µM (inactive); with K562 it was 1.41 µM (inactive). Besides, the GI50 in the experiment with Malme-3M was 1.58 µM (inactive); in the experiment with NCI-H226 it was 1.4 µM (inactive); in the experiment on NCI-H460, 0.671 µM (active); with NCI/ADR-RES, 0.771 µM (active); in the experiment on OVCAR-4, 2.88 µM (inactive); in the experiment on RPMI-8226 it was 8.73 µM (inactive). Moreover, the GI50 was 0.946 µM (active) with SF-295; 2.08 µM (inactive) in the experiment on SF-539; 1.59 µM (inactive) in the experiment on SK-MEL-2; 1.63 µM (inactive) in the experiment on SK-MEL-5; 2.15 µM (inactive) in the experiment on SK-OV-3; 2.5 µM (inactive) with SNB-19. Moreover, the GI50 is 1.6 µM (inactive) with U-251 and 2.37 µM (inactive) in the experiment with UACC-257.

With `COc1cc2c(cc1O)NC(=O)[C@@H]1CCCN1C2=O`, the GI50 with EKVX was > 100 µM (inactive); with HCT-15, over 100 µM; in the experiment on HOP-92 it was > 100 µM (inactive); in the experiment on HT-29 it was > 100 µM (inactive); in the experiment with IGROV-1 it was > 100 µM (inactive); with K562 it was > 100 µM (inactive). The GI50 with Malme-3M, in the experiment with NCI-H226, with NCI-H460, with NCI/ADR-RES, in the experiment with OVCAR-4 and in the experiment with RPMI-8226 was > 100 µM (inactive) throughout. In addition, the GI50 in the experiment with SF-295, with SF-539, in the experiment with SK-MEL-2, in the experiment on SK-MEL-5, in the experiment on SK-OV-3 and in the experiment on SNB-19 was > 100 µM (inactive) in each case. For the same compound, the GI50 in the experiment on U-251 and in the experiment with UACC-257 was > 100 µM (inactive) in each case.

`CCN(CCCl)c1cc(CN(C)C)cc(NC(=O)c2cc(C(=O)Nc3cc(CN(C)C)cc(N(CC)CCCl)c3)n(C)n2)c1`: the GI50 was 2.31 µM with HCT-15; 1.11 µM (active) in the experiment on HOP-92; 0.136 µM (active) in the experiment with HT-29; 0.136 µM (active) in the experiment with IGROV-1; 0.124 µM (active) with K562; 1.49 µM (inactive) in the experiment with Malme-3M. For the same compound, the GI50 with NCI-H226 was 1.43 µM (inactive); in the experiment with NCI-H460, < 0.01 µM (active); with NCI/ADR-RES it was 10.3 µM (inactive); with OVCAR-4 it was 0.485 µM (active); with RPMI-8226, 0.24 µM (active); in the experiment with SF-295, 0.78 µM (active). Also, the GI50 in the experiment with SF-539 is 0.338 µM (active); with SK-MEL-2, 1.55 µM (inactive); in the experiment with SK-MEL-5, 1.09 µM (active); in the experiment on SK-OV-3, 0.331 µM (active); with SNB-19 it was 0.0658 µM (active); in the experiment with U-251, 0.0923 µM (active). For the same compound, the GI50 in the experiment on UACC-257 was 1.37 µM (inactive).

On to `CCOC(=O)C1(C#N)C(=O)c2cc[n+](CC[n+]3ccc4c(c3)C(=O)C(C#N)(C(=O)OCC)C4=O)cc2C1=O` (configuration not stated), for which the GI50 is > 100 µM (inactive) with EKVX; over 100 µM with HCT-15; > 100 µM (inactive) in the experiment on HOP-92; > 100 µM (inactive) in the experiment on HT-29; > 100 µM (inactive) in the experiment with IGROV-1; 86.1 µM (inactive) in the experiment with K562. Also, the GI50 was 60.4 µM (inactive) with Malme-3M; > 100 µM (inactive) in the experiment with NCI-H226; > 100 µM (inactive) with NCI-H460; > 100 µM (inactive) with NCI/ADR-RES; > 100 µM (inactive) in the experiment with OVCAR-4; > 100 µM (inactive) with RPMI-8226. For the same compound, the GI50 in the experiment with SF-295 was > 100 µM (inactive); with SF-539, > 100 µM (inactive); with SK-MEL-2, 36.1 µM (inactive); in the experiment with SK-MEL-5, 18.4 µM (inactive); in the experiment with SK-OV-3 it was > 100 µM (inactive); with SNB-19 it was > 100 µM (inactive). Also, the GI50 in the experiment on U-251 and in the experiment on UACC-257 was > 100 µM (inactive) throughout.
